Test results published in patent publication US10226509B2, “Lymphangiogenesis inhibitors for cancer and for graft survival” (TUFTS UNIVERSITY, priority 2014, dated 2019).

Legend:
AKT = experiment: Western blot of AKT activation in primary LECs; type: cell-based, human; details: 0.5 μM for 0 to 60 minutes or 0 to 0.5 μM for 30 minutes
Protocol: (§1) Primary LECs were lysed with Triton lysis buffer supplemented with protease inhibitor cocktail and Phos-STOP phosphatase inhibitor cocktail (Roche), and subjected to electrophoresis in 4-15% SDS-PAGE gels (Bio-Rad). Protein blots of the gels were blocked with 0.5×Odyssey® blocking buffer (OBB, Li-COR). For AKT and ERK signaling, blots were incubated with primary antibodies (rabbit anti-ERK1/2, 1:7500, Cell Signaling Technology; mouse anti-phospho-ERK1/2, Thr202/Tyr204, 1:2000, Cell Signaling Technology; mouse anti-AKT1/2/3, 1:2000, Cell Signaling Technology; rabbit anti-phospho-AKT, Ser473, 1:1500, Cell Signaling Technology) overnight at 4° C. Blots were washed with 0.5% Tween-20/PBS three times, and were incubated with appropriate secondary antibodies (donkey anti-rabbit IRDye 680LT and anti-mouse IRDye 800CW, Li-Cor) for 45 min at 25° C. The blots were scanned by an Odyssey® Infrared Imaging System using Image Studio v2.0 software (Li-COR). […] Signals were detected by Odyssey® Infrared Imaging System. […]

ERK1/2 = experiment: Western blot of ERK activation in primary LECs; type: cell-based, human; details: 0.5 μM for 0 to 60 minutes or 0 to 0.5 μM for 30 minutes
Protocol: as §1

PDPN and integrin α5β1 = target: T1, PDPN and integrin α5β1 (Homo sapiens, UniProt P05556+P08648+Q86YL7); experiment: Immunoprecipitation with anti-PDPN from LEC lysates; type: cell-based; details: galectin-8 for 15 min at 37° C.
T1 construct: endogenous in cells; host or cells: primary lymphatic endothelial cells (LECs)
Protocol: Mouse isotype antibody (15 μg, Santa Cruz Biotechnology) and anti-PDPN (15 μg, clone E-1, Santa Cruz Biotechnology) were immobilized onto AminoLink Plus coupling resin (Pierce) by sodium cyanoborohydride according to manufacturer's instructions. Primary LECs were serum-starved overnight and treated with galectin-8 (0.2 μM) for 15 min at 37° C. After treatment, cells were lysed with IP lysis/wash buffer (25 mM Tris, 150 mM NaCl, 1 mM EDTA, 1% NP-40, 5% glycerol; pH 7.4) supplemented with protease inhibitor cocktails (Roche). After centrifugation (10 min, 13,000 rpm), supernatants (500 μg protein lysates) were pre-cleared by incubation for 1 hour with Pierce control agarose resin at 4° C. The clarified samples were incubated with the Ab-conjugated agarose resins overnight at 4° C. Immunoprecipitates were washed three times with IP lysis/wash buffer and once with conditioning buffer provided by the kit (Pierce). The bound proteins were eluted with low pH elution buffer, neutralized with Tris-HCl (pH 9.0), and analyzed with control inputs by western blotting using anti-integrin al (1:1,000, Abcam), anti-integrin α5 (clone H-104, 1:1,000, Santa Cruz Biotechnology), anti-integrin ([…] (clone N-20, 1:1,000, Santa Cruz Biotechnology), anti-PDPN, anti-galectin-8 (clone NBP1-66520, 1:1,000, Novus Biologicals) and anti-GAPDH as described in examples herein. […]

VEGF-C = target: T2, VEGF-C (Homo sapiens, UniProt P49767); experiment: Affinity precipitation assay, VEGF-C; type: binding; details: galectin-conjugated agarose beads
T2 construct: Primary LECs were incubated with agarose beads (control), and galectin-conjugated agarose beads at 4° C. overnight; endogenous in cells; host or cells: primary lymphatic endothelial cells (LECs)
T2 sequence (P49767 112-227): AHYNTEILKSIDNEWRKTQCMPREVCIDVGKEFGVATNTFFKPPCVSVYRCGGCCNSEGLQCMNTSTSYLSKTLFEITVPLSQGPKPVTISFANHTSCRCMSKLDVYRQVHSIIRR

T1 sequence (Q86YL7 23-162): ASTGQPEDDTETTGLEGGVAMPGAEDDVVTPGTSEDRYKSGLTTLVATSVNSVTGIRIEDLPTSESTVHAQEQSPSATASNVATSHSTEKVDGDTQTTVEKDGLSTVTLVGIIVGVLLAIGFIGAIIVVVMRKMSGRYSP
T1 sequence (P08648 42-894 limits assumed): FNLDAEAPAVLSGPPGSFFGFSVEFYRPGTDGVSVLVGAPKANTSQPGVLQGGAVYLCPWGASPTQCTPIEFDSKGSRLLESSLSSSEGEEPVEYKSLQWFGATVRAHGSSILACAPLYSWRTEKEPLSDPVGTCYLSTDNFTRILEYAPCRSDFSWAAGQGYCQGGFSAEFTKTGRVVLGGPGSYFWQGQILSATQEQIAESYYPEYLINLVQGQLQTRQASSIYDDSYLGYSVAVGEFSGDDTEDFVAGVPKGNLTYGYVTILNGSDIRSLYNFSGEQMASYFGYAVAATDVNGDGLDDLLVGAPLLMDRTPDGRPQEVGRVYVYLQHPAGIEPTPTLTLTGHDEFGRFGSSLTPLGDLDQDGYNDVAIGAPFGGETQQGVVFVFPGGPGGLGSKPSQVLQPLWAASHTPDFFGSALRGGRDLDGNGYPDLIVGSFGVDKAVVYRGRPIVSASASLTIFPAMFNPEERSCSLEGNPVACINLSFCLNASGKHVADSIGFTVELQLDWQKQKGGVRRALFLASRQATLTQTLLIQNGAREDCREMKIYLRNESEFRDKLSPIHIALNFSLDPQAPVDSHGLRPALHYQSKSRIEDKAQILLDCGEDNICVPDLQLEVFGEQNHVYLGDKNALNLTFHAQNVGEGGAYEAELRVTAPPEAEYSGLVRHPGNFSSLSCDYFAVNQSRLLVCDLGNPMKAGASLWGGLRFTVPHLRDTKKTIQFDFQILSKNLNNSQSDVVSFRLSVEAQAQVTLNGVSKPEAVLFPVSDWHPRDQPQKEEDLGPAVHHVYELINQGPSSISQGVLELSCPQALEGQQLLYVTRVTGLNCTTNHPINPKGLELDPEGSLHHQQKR
T1 sequence (P08648 895-1049 limits assumed): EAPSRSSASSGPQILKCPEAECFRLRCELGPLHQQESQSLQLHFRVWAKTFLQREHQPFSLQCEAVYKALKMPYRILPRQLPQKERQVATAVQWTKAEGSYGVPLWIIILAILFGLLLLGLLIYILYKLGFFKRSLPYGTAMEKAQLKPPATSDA
T1 sequence (P05556 21-798): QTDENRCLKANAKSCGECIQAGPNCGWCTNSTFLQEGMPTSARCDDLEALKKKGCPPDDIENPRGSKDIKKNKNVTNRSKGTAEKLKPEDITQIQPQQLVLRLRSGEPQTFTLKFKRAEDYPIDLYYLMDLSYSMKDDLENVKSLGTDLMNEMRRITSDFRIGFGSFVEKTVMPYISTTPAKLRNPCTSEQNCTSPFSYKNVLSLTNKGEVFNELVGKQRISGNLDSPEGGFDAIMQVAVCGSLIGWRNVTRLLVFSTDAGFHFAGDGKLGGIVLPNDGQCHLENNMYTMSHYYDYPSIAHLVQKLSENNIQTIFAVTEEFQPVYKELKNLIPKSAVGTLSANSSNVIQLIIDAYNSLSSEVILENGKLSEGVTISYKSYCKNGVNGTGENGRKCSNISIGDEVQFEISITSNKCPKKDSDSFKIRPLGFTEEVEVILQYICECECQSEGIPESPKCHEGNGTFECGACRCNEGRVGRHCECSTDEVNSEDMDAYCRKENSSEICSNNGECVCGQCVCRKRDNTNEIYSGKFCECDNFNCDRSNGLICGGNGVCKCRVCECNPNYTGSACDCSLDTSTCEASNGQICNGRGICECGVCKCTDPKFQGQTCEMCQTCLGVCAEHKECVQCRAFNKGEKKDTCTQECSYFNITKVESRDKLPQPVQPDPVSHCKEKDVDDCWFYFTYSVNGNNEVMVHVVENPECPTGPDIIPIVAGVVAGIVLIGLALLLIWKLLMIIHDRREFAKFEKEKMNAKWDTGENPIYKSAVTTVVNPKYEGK

binding to VEGF-C (in words) (VEGF-C): does not interact with VEGF-C
Substance: Gal-8: recombinant galectin-8, tandem-repeat type galectin with two different CRDs
phosphorylation of AKT (in words) (AKT): induced phosphorylation of AKT and ERK1/2 in time- and dose-dependent manner
phosphorylation of ERK1/2 (in words) (ERK1/2): induced phosphorylation of AKT and ERK1/2 in time- and dose-dependent manner
association between PDPN and integrin α5β1 (PDPN and integrin α5β1): increased association between PDPN and integrin α5β1
